How the values were obtained:
[1] = system: systemic TF1a xenografts; assay: Systemic TF1a xenografts in SCID mice (AML model); assay type: in vivo; conditions: TF1a-SCID; mRNA LNPs 3 mg/kg one time per week, cytarabine 2 mg/kg three times per week, IV, four weeks
Protocol: LNPs comprising the cationic lipid MC3 were tested using the optimal percentage of PEG-lipid and optimal PEG length (1.5% DSPE, C18, as described in Example 8), for in vivo targeted delivery of SQT-PUMA-BH3 in two different in vivo models of acute myeloid leukemia (AML). One model used systemic TF1a xenografts in SCID mice. The other model used systemic HEL xenografts in SCID mice. Each of these models uses a human erythroleukemia cell line. The HEL erythroleukia cell line is described in, for example, Martin, P. and Papayannopoulou, T. (1982) Science 216:1233-1235. The TF1 erythroleukmia cell line (from which TF1a is derived) is described in, for example, Kitamura, T. et al. (1989) J. Cell. Physiol. 140:323-334. Unless otherwise noted, mRNAs were fully modified with N1-methlypseudouridine to avoid stimulating an innate immune response to said mRNAs when administered in vivo.
In a first set of experiments, TF1a cells stably expressing luciferase (TF1α-luc cells) were implanted systemically in SCID mice. Tumor growth was measured by whole body bioluminescent imaging (BLI) in anaesthetized animals following SC injection of 150 mg/kg D-Luciferin, in an imaging chamber (Spectrum CT). Animals showing an increasing tumor burden at day 12 post-cell implantation were recruited for treatment. […]

[2] = system: MCL1; assay: MCL1 downregulation by Western blotting in Hep3B cells; assay type: cell-based, human; conditions: 24 hours, sorafenib 10 uM
Protocol: A first series of experiments was conducted to determine whether specific targeting of MCL1 recapitulates sorafenib synergy with SQT-BH3 in cells in vitro.

[3] = system: Hep3B SC tumors; assay: Combination with sorafenib in SCID mice bearing Hep3B SC tumors; assay type: in vivo; conditions: Sorafenib 10 mg/kg orally daily alone, three weeks, end of study
Protocol: SCID mice bearing Hep3B SC tumors (tumor size range 140-227 mm^3; average=183 mm^3) were dosed over a three week period with a combination of 0.5% methyl cellulose daily and SQT IV at 1.5 mg/kg alone weekly (Days 1, 8 and 15; Group 1), Sorafenib (in 0.5% methyl cellulose) at 10 mg/kg orally daily alone (Group 2), mmRNA encoding SQT-PUMA-BH3 (comprising a miR122 binding site) weekly at 1.5 mg/kg IV alone (Group 3) or a combination of mmRNA encoding SQT-PUMA-BH3 (with miR122 binding site) at 1.5 mg/kg IV weekly with sorafenib at 10 mg/kg orally daily (Group 4; 10 animals per group).

With Nc1ccn([C@@H]2O[C@H](CO)[C@@H](O)[C@@H]2O)c(=O)n1 [cytarabine, reference compound] the “systemic tumor growth (BLI)” value [1] was “did inhibit systemic tumor growth”.

In the case of CNC(=O)c1cc(Oc2ccc(NC(=O)Nc3ccc(Cl)c(C(F)(F)F)c3)cc2)ccn1 [sorafenib, reference compound], the “MCL1 level (Western blotting)” value [2] is reported as “downregulates MCL1” and the “tumor growth inhibition (TGI)” value [3] is reported as 38%.

Source: US20190119357A1, “MESSENGER RIBONUCLEIC ACIDS FOR THE PRODUCTION OF INTRACELLULAR BINDING POLYPEPTIDES AND METHODS OF USE THEREOF” (ModernaTX, Inc., priority 2015, published 2019)
